Test results: ChEMBL document CHEMBL3885861, “Open TG-GATES”

Species on record: Rattus norvegicus
Experiment: Open TG-GATES - Regimen: Daily Repeat
Assay type: toxicity, organism-based, Sprague-Dawley
Design: regimen Daily Repeat, gender Male, age 6 weeks
Settings: in vivo, po, 30 mg/kg, […], route gavage, dose level Low; for KIDNEY_L / KIDNEY_R / KIDNEY_TOTAL: tissue Kidney; for LIVER: tissue Liver; for A/G / ALP / ALT / AST / BUN / CRE / Ca / Cl / DBIL / GLC / IP / K / LDH / Na / PL / RALB / TBIL / TC / TG / TP / gamma-GTP: tissue Plasma

CC[C@H]1[C@@H]2C[C@H]3[C@@H]4N(C)c5ccccc5[C@]45C[C@@H]([C@@H]2[C@H]5O)N3[C@@H]1O [AJMALINE] was tested, and the Lym (tissue Blood, time 28 day) was 83%, the MCH (tissue Blood, time 28 day) was 20.4 pg and the MCHC (tissue Blood, time 28 day) was 33.8%. The MCV (tissue Blood, time 28 day) was 60.3 fL, the Mono (tissue Blood, time 28 day) was 4.6% and the Neu (tissue Blood, time 28 day) was 11.4%. It also gave a PT (tissue Blood, time 28 day) of 11.2 s, a Plat (tissue Blood, time 28 day) of 96.6 x10_4/uL and an RBC (tissue Blood, time 28 day) of 754.8 x10_4/ul. For the same compound, the Ret (tissue Blood, time 28 day) was 2.1%, the WBC (tissue Blood, time 28 day) was 110.2 x10_2/uL and the KIDNEY_L (time 7 day) was 1 g. The KIDNEY_R (time 7 day) was 1 g, the KIDNEY_TOTAL (time 7 day) was 2 g and the KIDNEY_L (time 14 day) was 1.2 g. For the same compound, the KIDNEY_R (time 14 day) was 1.2 g, the KIDNEY_TOTAL (time 14 day) was 2.3 g and the KIDNEY_L (time 28 day) was 1.3 g. It also gave a KIDNEY_R (time 28 day) of 1.3 g, a KIDNEY_TOTAL (time 28 day) of 2.7 g and an LIVER (time 7 day) of 12 g. The LIVER (time 14 day) was 13.8 g, the LIVER (time 28 day) was 16.1 g and the A/G (time 7 day) was 1.8. For the same compound, the ALP (time 7 day) was 975.8 IU/L, the ALT (time 7 day) was 34.8 IU/L and the AST (time 7 day) was 65.6 IU/L. It also gave a BUN (time 7 day) of 20.2 mg/dL, a CRE (time 7 day) of 0.5 mg/dL and a Ca (time 7 day) of 11.4 mg/dL. It also gave a Cl (time 7 day) of 104.4 meq/L, a DBIL (time 7 day) of 0.012 mg/dL and a GLC (time 7 day) of 196.8 mg/dL. It also gave an IP (time 7 day) of 7.3 mg/dL, a K (time 7 day) of 4.7 meq/L and an LDH (time 7 day) of 119.6 IU/L. It also gave a Na (time 7 day) of 141.4 meq/L, a PL (time 7 day) of 160 mg/dL and an RALB (time 7 day) of 3.8 g/dL. The TBIL (time 7 day) was 0.3 mg/dL, the TC (time 7 day) was 82 mg/dL and the TG (time 7 day) was 123.2 mg/dL. For the same compound, the TP (time 7 day) was 5.9 g/dL, the gamma-GTP (time 7 day) was 1.4 IU/L and the A/G (time 14 day) was 2.2. The ALP (time 14 day) was 942.2 IU/L, the ALT (time 14 day) was 32.4 IU/L and the AST (time 14 day) was 61 IU/L. It also gave a BUN (time 14 day) of 20 mg/dL, a CRE (time 14 day) of 0.5 mg/dL and a Ca (time 14 day) of 10.9 mg/dL. It also gave a Cl (time 14 day) of 105.2 meq/L, a DBIL (time 14 day) of 0.01 mg/dL and a GLC (time 14 day) of 201 mg/dL. It also gave an IP (time 14 day) of 7.1 mg/dL, a K (time 14 day) of 4.5 meq/L and an LDH (time 14 day) of 104.8 IU/L. For the same compound, the Na (time 14 day) was 141.4 meq/L, the PL (time 14 day) was 157.6 mg/dL and the RALB (time 14 day) was 3.9 g/dL. The TBIL (time 14 day) was 0.3 mg/dL, the TC (time 14 day) was 80 mg/dL and the TG (time 14 day) was 106.8 mg/dL. It also gave a TP (time 14 day) of 5.8 g/dL, a gamma-GTP (time 14 day) of 1.8 IU/L and an A/G (time 28 day) of 1.8. It also gave an ALP (time 28 day) of 659.2 IU/L, an ALT (time 28 day) of 30.8 IU/L and an AST (time 28 day) of 62.8 IU/L. The BUN (time 28 day) was 19.6 mg/dL, the CRE (time 28 day) was 0.6 mg/dL and the Ca (time 28 day) was 10.5 mg/dL. The Cl (time 28 day) was 105.2 meq/L, the DBIL (time 28 day) was 0.008 mg/dL and the GLC (time 28 day) was 198.2 mg/dL. For the same compound, the IP (time 28 day) was 6.2 mg/dL, the K (time 28 day) was 4.5 meq/L and the LDH (time 28 day) was 109.6 IU/L. For the same compound, the Na (time 28 day) was 142.4 meq/L, the PL (time 28 day) was 158.2 mg/dL and the RALB (time 28 day) was 3.9 g/dL. It also gave a TBIL (time 28 day) of 0.3 mg/dL, a TC (time 28 day) of 71.8 mg/dL and a TG (time 28 day) of 190.2 mg/dL. For the same compound, the TP (time 28 day) was 6.1 g/dL and the gamma-GTP (time 28 day) was 1 IU/L.
